Our source for the relative viability values is the supplement of paper PMC10307832.

What all share (test): relative viability (nuclei count vs DMSO), 5 days (fraction); higher = more cells survive
Compound in assay [1]: COc1cccc2c1C(=O)c1c(O)c3c(c(O)c1C2=O)C[C@@](O)(C(=O)CO)C[C@@H]3O[C@H]1C[C@H](N)[C@H](O)[C@H](C)O1 [Doxorubicin] + CC(=O)Nc1cccc(-n2c(=O)n(C3CC3)c(=O)c3c(Nc4ccc(I)cc4F)n(C)c(=O)c(C)c32)c1 [Trametinib] (partner 0.02 µM)
Put shortly: (§1)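 Lung cancer cell lines, seeded in 1536-well plates, were treated the following day by pin tool with a single drug or with five library-drug doses (not always all listed) in √10 steps on top of a fixed anchor-drug dose. Cells were fixed and nuclei stained in one step after 5 days, and nuclei were counted. Relative viability is the nuclei count for treated wells divided by that for vehicle wells, reported as medians of duplicate plates.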

Compound in assay [2]: COc1cccc2c1C(=O)c1c(O)c3c(c(O)c1C2=O)C[C@@](O)(C(=O)CO)C[C@@H]3O[C@H]1C[C@H](N)[C@H](O)[C@H](C)O1 [Doxorubicin] + C[C@@H](Oc1cc(-c2cnn(C3CCNCC3)c2)cnc1N)c1c(Cl)ccc(F)c1Cl [Crizotinib] (partner 1 µM)
Put shortly:
as §1

Compound in assay [3]: COC1=C(C=C(C=C1)C2=CC3=NC=CN3C(=N2)NC4=C(C=CC=N4)C(=O)N)OC [BAY61-3606] + O=C(c1cc(Cc2n[nH]c(=O)c3ccccc23)ccc1F)N1CCN(C(=O)C2CC2)CC1 [Olaparib] (partner 8 µM)
Put shortly:
as §1

Compound in assay [4]: COc1cccc2c1C(=O)c1c(O)c3c(c(O)c1C2=O)C[C@@](O)(C(=O)CO)C[C@@H]3O[C@H]1C[C@H](N)[C@H](O)[C@H](C)O1 [Doxorubicin] + COc1cccc2cc(-c3nc([C@H]4CC[C@H](C(=O)O)CC4)n4ncnc(N)c34)[nH]c12 [OSI-027] (partner 0.5 µM)
Put shortly: as §1

In the case of NCI-H1650, the relative viability in assay [1] (first compound 0.001 µM) turned out to be 0.56; in assay [1] (first compound 0.003162 µM), 0.532; in assay [1] (first compound 0.01 µM), 0.433; in assay [1] (first compound 0.03162 µM), 0.218; in assay [1] (first compound 0.1 µM) it was 0.144; in assay [2] (first compound 0.001 µM) it was 0.925. In addition, the relative viability in assay [2] (first compound 0.003162 µM) is 0.903; in assay [2] (first compound 0.01 µM), 0.283; in assay [2] (first compound 0.03162 µM), 0.181; in assay [2] (first compound 0.1 µM), 0.13; in assay [3] (first compound 0.02 µM) it was 0.86; in assay [3] (first compound 0.06325 µM), 0.924. The relative viability came to 0.768 in assay [3] (first compound 0.2 µM); 0.806 in assay [3] (first compound 0.6325 µM); 0.674 in assay [3] (first compound 2 µM); 0.496 in assay [4] (first compound 0.001 µM); 0.567 in assay [4] (first compound 0.003162 µM); 0.394 in assay [4] (first compound 0.01 µM). Besides, the relative viability in assay [4] (first compound 0.03162 µM) was 0.153; in assay [4] (first compound 0.1 µM) it was 0.144.

NCI-H2405: the relative viability in assay [1] (first compound 0.001 µM) amounted to 0.595; in assay [1] (first compound 0.003162 µM) it was 0.548; in assay [1] (first compound 0.01 µM), 0.601; in assay [1] (first compound 0.03162 µM), 0.446; in assay [1] (first compound 0.1 µM), 0.584; in assay [2] (first compound 0.001 µM) it was 0.843. In addition, the relative viability in assay [2] (first compound 0.003162 µM) was 0.869; in assay [2] (first compound 0.01 µM) it was 0.846; in assay [2] (first compound 0.03162 µM), 0.871; in assay [2] (first compound 0.1 µM), 0.85; in assay [3] (first compound 0.02 µM), 0.941; in assay [3] (first compound 0.06325 µM) it was 0.89. For the same cell line, the relative viability in assay [3] (first compound 0.2 µM) was 0.845; in assay [3] (first compound 0.6325 µM), 0.907; in assay [3] (first compound 2 µM), 0.695; in assay [4] (first compound 0.001 µM), 0.607; in assay [4] (first compound 0.003162 µM) it was 0.645; in assay [4] (first compound 0.01 µM), 0.654. The relative viability in assay [4] (first compound 0.03162 µM) was 0.629; in assay [4] (first compound 0.1 µM), 0.509.

For LOU-NH91, the relative viability in assay [1] (first compound 0.003162 µM) stood at 0.724; in assay [1] (first compound 0.01 µM) it was 0.766; in assay [1] (first compound 0.03162 µM), 0.766; in assay [1] (first compound 0.1 µM), 0.654; in assay [2] (first compound 0.003162 µM) it was 0.763; in assay [2] (first compound 0.01 µM) it was 0.772. In addition, the relative viability in assay [2] (first compound 0.03162 µM) is 0.674; in assay [2] (first compound 0.1 µM), 0.711; in assay [3] (first compound 0.02 µM), 0.944; in assay [3] (first compound 0.06325 µM), 0.922; in assay [3] (first compound 0.2 µM) it was 0.903; in assay [3] (first compound 0.6325 µM), 0.944. Also, the relative viability stood at 0.728 in assay [3] (first compound 2 µM); 0.569 in assay [4] (first compound 0.001 µM); 0.748 in assay [4] (first compound 0.003162 µM); 0.803 in assay [4] (first compound 0.01 µM); 0.681 in assay [4] (first compound 0.03162 µM); 0.69 in assay [4] (first compound 0.1 µM).

With EPLC-272H, the relative viability in assay [1] (first compound 0.001 µM) was determined as 0.278; in assay [1] (first compound 0.003162 µM), 0.288; in assay [1] (first compound 0.01 µM) it was 0.28; in assay [1] (first compound 0.03162 µM), 0.289; in assay [1] (first compound 0.1 µM), 0.295; in assay [2] (first compound 0.001 µM) it was 1.37. For the same cell line, the relative viability in assay [2] (first compound 0.003162 µM) stood at 0.965; in assay [2] (first compound 0.01 µM), 1.01; in assay [2] (first compound 0.03162 µM) it was 0.806; in assay [2] (first compound 0.1 µM), 0.861; in assay [3] (first compound 0.02 µM) it was 0.962; in assay [3] (first compound 0.06325 µM) it was 0.722. Further, the relative viability in assay [3] (first compound 0.2 µM) amounted to 0.706; in assay [3] (first compound 0.6325 µM), 0.709; in assay [3] (first compound 2 µM), 0.323; in assay [4] (first compound 0.001 µM) it was 0.29; in assay [4] (first compound 0.003162 µM) it was 0.275; in assay [4] (first compound 0.01 µM) it was 0.255. For the same cell line, the relative viability in assay [4] (first compound 0.03162 µM) was 0.272; in assay [4] (first compound 0.1 µM), 0.28.

In the case of NCI-H1975, the relative viability in assay [1] (first compound 0.001 µM) came to 0.256; in assay [1] (first compound 0.003162 µM) it was 0.332; in assay [1] (first compound 0.01 µM), 0.376; in assay [1] (first compound 0.03162 µM), 0.234; in assay [1] (first compound 0.1 µM) it was 0.248; in assay [2] (first compound 0.001 µM), 0.853. The relative viability in assay [2] (first compound 0.003162 µM) was determined as 1.09; in assay [2] (first compound 0.01 µM) it was 0.946; in assay [2] (first compound 0.03162 µM), 0.431; in assay [2] (first compound 0.1 µM), 0.423; in assay [3] (first compound 0.02 µM), 0.858; in assay [3] (first compound 0.06325 µM), 0.798. For the same cell line, the relative viability in assay [3] (first compound 0.2 µM) turned out to be 0.733; in assay [3] (first compound 0.6325 µM), 0.707; in assay [3] (first compound 2 µM), 0.516; in assay [4] (first compound 0.001 µM), 0.637; in assay [4] (first compound 0.003162 µM), 0.715; in assay [4] (first compound 0.01 µM), 0.685. Besides, the results for the relative viability in assay [4] (first compound 0.03162 µM) and in assay [4] (first compound 0.1 µM) were 0.497 and 0.256, respectively.

Regarding NCI-H322M, the relative viability in assay [1] (first compound 0.001 µM) is 0.478; in assay [1] (first compound 0.003162 µM) it was 0.565; in assay [1] (first compound 0.01 µM) it was 0.52; in assay [1] (first compound 0.03162 µM), 0.542; in assay [1] (first compound 0.1 µM), 0.498; in assay [2] (first compound 0.001 µM) it was 1.02. Besides, the relative viability was found to be 1.07 in assay [2] (first compound 0.003162 µM); 0.86 in assay [2] (first compound 0.01 µM); 0.922 in assay [2] (first compound 0.03162 µM); 0.893 in assay [2] (first compound 0.1 µM); 0.779 in assay [3] (first compound 0.02 µM); 0.822 in assay [3] (first compound 0.06325 µM). For the same cell line, the relative viability in assay [3] (first compound 0.2 µM) is 0.75; in assay [3] (first compound 0.6325 µM) it was 0.749; in assay [3] (first compound 2 µM), 0.724; in assay [4] (first compound 0.001 µM), 0.414; in assay [4] (first compound 0.003162 µM) it was 0.493; in assay [4] (first compound 0.01 µM) it was 0.566. Moreover, the relative viability was found to be 0.556 in assay [4] (first compound 0.03162 µM) and 0.378 in assay [4] (first compound 0.1 µM).
